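How tested: cells in 96-well plates exposed to compound for 48 hours at five concentrations. At the GI50, growth is halved.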 The source made the active and inactive calls. No stated cut-off is given here; in the data, active = GI50 up to about 1.1 µM and inactive = higher.
How the values were obtained:
Experiment in all cases: NCI tumour cell line growth inhibition, 48 h
[1] = test system: SK-OV-3
[2] = test system: RXF 393
[3] = test system: DU-145
[4] = test system: OVCAR-3
[5] = test system: OVCAR-8
[6] = test system: A549
[7] = test system: Hs-578T
[8] = test system: EKVX
[9] = test system: TK-10
[10] = test system: SW-620
[11] = test system: SNB-75
[12] = test system: RPMI-8226
[13] = test system: HL-60
[14] = test system: UACC-62
[15] = test system: Malme-3M
[16] = test system: SN12C
[17] = test system: MDA-MB-231
[18] = test system: HCT-116
[19] = test system: SF-268
[20] = test system: OVCAR-4
[21] = test system: HT-29
[22] = test system: NCI-H23
[23] = test system: LOX IMVI
[24] = test system: SK-MEL-5
[25] = test system: HOP-62
[26] = test system: IGROV-1
[27] = test system: M14
[28] = test system: SK-MEL-28
[29] = test system: MDA-MB-435
[30] = test system: MCF7
[31] = test system: COLO 205
[32] = test system: K562
[33] = test system: KM12
[34] = test system: HCT-15
[35] = test system: BT-549
[36] = test system: PC-3
[37] = test system: MOLT-4
[38] = test system: CCRF-CEM
[39] = test system: CAKI-1
[40] = test system: SR
[41] = test system: OVCAR-5
[42] = test system: U-251
[43] = test system: SF-539
[44] = test system: ACHN
[45] = test system: MDA-N
[46] = test system: NCI-H460
[47] = test system: UO-31
[48] = test system: SNB-19
[49] = test system: T47D
[50] = test system: UACC-257
[51] = test system: NCI/ADR-RES
[52] = test system: SF-295
[53] = test system: SK-MEL-2
[54] = test system: NCI-H522
[55] = test system: HOP-92
[56] = test system: NCI-H226
[57] = test system: 786-0
[58] = test system: A498
[59] = test system: HCC 2998

In the case of `COc1ccc(-c2c3c(nc4nc(SCC(=O)c5ccc(Br)cc5)nc(N)c24)CCCC3)cc1OC`, the GI50 [1] is reported as 30.5 µM (inactive), the GI50 [2] is reported as 19.3 µM (inactive) and the GI50 [3] is reported as > 100 µM (inactive). The GI50 [4] was > 100 µM (inactive), the GI50 [5] was 33.5 µM (inactive) and the GI50 [6] was > 100 µM (inactive). For the same compound, the GI50 [7] was 15.3 µM (inactive), the GI50 [8] was 84.1 µM (inactive) and the GI50 [9] was > 100 µM (inactive). The GI50 [10] was 74.5 µM (inactive), the GI50 [11] was 14.9 µM (inactive) and the GI50 [12] was 64.1 µM (inactive). For the same compound, the GI50 [13] was 90.6 µM (inactive), the GI50 [14] was > 100 µM (inactive) and the GI50 [15] was 42.6 µM (inactive). For the same compound, the GI50 [16] was > 100 µM (inactive), the GI50 [17] was 26.9 µM (inactive) and the GI50 [18] was > 100 µM (inactive). The GI50 [19] was 71.9 µM (inactive), the GI50 [20] was 33.7 µM (inactive) and the GI50 [21] was 41.4 µM (inactive). For the same compound, the GI50 [22] was > 100 µM (inactive), the GI50 [23] was > 100 µM (inactive) and the GI50 [24] was 10.1 µM (inactive). The GI50 [25] was 58.6 µM (inactive), the GI50 [26] was > 100 µM (inactive) and the GI50 [27] was 41.9 µM (inactive). The GI50 [28] was 64 µM (inactive), the GI50 [29] was > 100 µM (inactive) and the GI50 [30] was > 100 µM (inactive). The GI50 [31] was > 100 µM (inactive), the GI50 [32] was > 100 µM (inactive) and the GI50 [33] was > 100 µM (inactive). The GI50 [34] was over 100 µM, the GI50 [35] was 80 µM (inactive) and the GI50 [36] was > 100 µM (inactive). The GI50 [37] was > 10 µM (inactive), the GI50 [38] was > 100 µM (inactive) and the GI50 [39] was 79.6 µM (inactive). The GI50 [40] was > 100 µM (inactive), the GI50 [41] was > 100 µM (inactive) and the GI50 [42] was > 100 µM (inactive). The GI50 [43] was > 100 µM (inactive), the GI50 [44] was > 100 µM (inactive) and the GI50 [45] was > 100 µM (inactive). The GI50 [46] was > 100 µM (inactive), the GI50 [47] was > 100 µM (inactive) and the GI50 [48] was > 100 µM (inactive). The GI50 [49] was 73.6 µM (inactive), the GI50 [50] was > 100 µM (inactive) and the GI50 [51] was 74.5 µM (inactive). For the same compound, the GI50 [52] was > 100 µM (inactive).

For `O=C1c2ccccc2-c2ccc(/N=[N+](/[O-])c3ccc4c(c3)C(=O)c3ccccc3-4)cc21`, the GI50 [1] was > 100 µM (inactive), the GI50 [2] was > 100 µM (inactive) and the GI50 [3] was > 100 µM (inactive). The GI50 [4] was > 100 µM (inactive), the GI50 [5] was > 100 µM (inactive) and the GI50 [53] was > 100 µM (inactive). For the same compound, the GI50 [6] was > 100 µM (inactive), the GI50 [7] was > 100 µM (inactive) and the GI50 [8] was > 100 µM (inactive). For the same compound, the GI50 [9] was > 100 µM (inactive), the GI50 [54] was > 100 µM (inactive) and the GI50 [10] was > 100 µM (inactive). The GI50 [11] was > 100 µM (inactive), the GI50 [12] was > 100 µM (inactive) and the GI50 [13] was > 100 µM (inactive). The GI50 [14] was > 100 µM (inactive), the GI50 [15] was > 100 µM (inactive) and the GI50 [16] was > 100 µM (inactive). The GI50 [17] was > 100 µM (inactive), the GI50 [55] was > 100 µM (inactive) and the GI50 [18] was > 100 µM (inactive). For the same compound, the GI50 [19] was > 100 µM (inactive), the GI50 [20] was > 100 µM (inactive) and the GI50 [21] was > 100 µM (inactive). The GI50 [22] was > 100 µM (inactive), the GI50 [23] was > 100 µM (inactive) and the GI50 [24] was > 100 µM (inactive). The GI50 [25] was 71.4 µM (inactive), the GI50 [26] was > 100 µM (inactive) and the GI50 [27] was > 100 µM (inactive). The GI50 [28] was > 100 µM (inactive), the GI50 [29] was > 100 µM (inactive) and the GI50 [30] was > 100 µM (inactive). For the same compound, the GI50 [31] was > 100 µM (inactive), the GI50 [32] was > 100 µM (inactive) and the GI50 [33] was > 100 µM (inactive). For the same compound, the GI50 [34] was over 100 µM, the GI50 [35] was > 100 µM (inactive) and the GI50 [36] was > 100 µM (inactive). For the same compound, the GI50 [37] was > 100 µM (inactive), the GI50 [38] was > 100 µM (inactive) and the GI50 [39] was > 100 µM (inactive). For the same compound, the GI50 [56] was > 100 µM (inactive), the GI50 [41] was > 100 µM (inactive) and the GI50 [42] was > 100 µM (inactive). For the same compound, the GI50 [57] was > 100 µM (inactive), the GI50 [44] was > 100 µM (inactive) and the GI50 [45] was > 100 µM (inactive). The GI50 [58] was > 100 µM (inactive), the GI50 [46] was > 100 µM (inactive) and the GI50 [47] was > 100 µM (inactive). For the same compound, the GI50 [48] was > 100 µM (inactive), the GI50 [49] was > 100 µM (inactive) and the GI50 [50] was > 100 µM (inactive). For the same compound, the GI50 [51] was > 100 µM (inactive), the GI50 [59] was > 100 µM (inactive) and the GI50 [52] was > 100 µM (inactive).

With `COc1ccc(C2Oc3c(cccc3OC)C=C2[N+](=O)[O-])cc1` (stereo not given) the GI50 [1] was 4.26 µM (inactive), the GI50 [2] was 1.4 µM (inactive) and the GI50 [3] was 4.38 µM (inactive). The GI50 [4] was 2 µM (inactive), the GI50 [5] was 2.49 µM (inactive) and the GI50 [6] was 11.9 µM (inactive). The GI50 [7] was 2.58 µM (inactive), the GI50 [8] was 10.6 µM (inactive) and the GI50 [9] was 2.91 µM (inactive). For the same compound, the GI50 [54] was 1.32 µM (inactive), the GI50 [12] was 2.01 µM (inactive) and the GI50 [13] was 2.17 µM (inactive). For the same compound, the GI50 [14] was 1.91 µM (inactive), the GI50 [15] was 2.54 µM (inactive) and the GI50 [16] was 2.02 µM (inactive). The GI50 [17] was 3.3 µM (inactive), the GI50 [18] was 1.28 µM (inactive) and the GI50 [19] was 2.69 µM (inactive). For the same compound, the GI50 [20] was 2.96 µM (inactive), the GI50 [21] was 1.63 µM (inactive) and the GI50 [22] was 3.08 µM (inactive). For the same compound, the GI50 [23] was 1.2 µM (inactive), the GI50 [24] was 1.51 µM (inactive) and the GI50 [25] was 2.49 µM (inactive). For the same compound, the GI50 [26] was 3.33 µM (inactive), the GI50 [27] was 0.743 µM (active) and the GI50 [28] was 1.91 µM (inactive). The GI50 [29] was 2.12 µM (inactive), the GI50 [30] was 2.18 µM (inactive) and the GI50 [31] was 2.51 µM (inactive). For the same compound, the GI50 [32] was 0.668 µM (active), the GI50 [33] was 1.92 µM (inactive) and the GI50 [34] was 1.36 µM. For the same compound, the GI50 [35] was 1.36 µM (inactive), the GI50 [36] was 1.69 µM (inactive) and the GI50 [37] was 1.19 µM (inactive). The GI50 [38] was 0.451 µM (active), the GI50 [39] was 1.58 µM (inactive) and the GI50 [40] was 2 µM (inactive). The GI50 [41] was 2.26 µM (inactive), the GI50 [42] was 1.86 µM (inactive) and the GI50 [57] was 2.31 µM (inactive). The GI50 [44] was 1.74 µM (inactive), the GI50 [45] was 2 µM (inactive) and the GI50 [46] was 1.81 µM (inactive). For the same compound, the GI50 [47] was 1.71 µM (inactive), the GI50 [48] was 3.99 µM (inactive) and the GI50 [49] was 3.75 µM (inactive). The GI50 [50] was 2.96 µM (inactive), the GI50 [51] was 2.58 µM (inactive) and the GI50 [52] was 3.83 µM (inactive).
